Biological target: T1, human glucagon receptor (Homo sapiens, UniProt P47871)
T1 construct: expressed in transfected cells; cell membranes used
Assay: Glucagon Receptor Binding Assay (125I-glucagon, SPA, CHO cell membranes)
Details: for IC50: inhibition of 125I-glucagon binding to membranes of CHO cells expressing cloned human glucagon receptor, value for the most active stereoisomer prepared; for relative potency as glucagon receptor antagonist among the stereoisomers prepared: comparison of stereoisomers of the same example, assay not stated
Method: A stable CHO (Chinese hamster ovary) cell line expressing cloned human glucagon receptor was maintained as described (Chicchi, et. al. J Biol Chem 272, 7765-9(1997); Cascieri, et. al. J Biol Chem 274, 8694-7(1999)). To determine antagonistic binding affinity of compounds, 0.001-0.003 mg of cell membranes from these cells were pre-incubated with 0.100 mg WGA-coated PVT SPA beads (Amersham) for 20 minutes at room temperature in […] of a buffer containing 50 mM Tris-HCl (pH 7.5), 5 mM MgCl2, 2 mM EDTA, 0.1% BSA and 3% glycerol in Costar 384 well plates with clear bottoms (#3706). Next, 25 μL of ^125I-Glucagon (New England Nuclear, MA) (1×10^−14 mol per well) and either 1 μL solutions of test compounds or 0.001 mM unlabeled glucagon or DMSO were added and mixed. After 4-12 hours incubation at room temperature, the radioactivity bound to the cell membranes was determined in a radioactive emission detection counter (Wallac-Microbeta). Data were analyzed using the Data Analyzer software program of Merck & Co., Inc. The IC50 values were calculated using non-linear regression analysis assuming single-site competition.

T1 sequence (P47871 26-477): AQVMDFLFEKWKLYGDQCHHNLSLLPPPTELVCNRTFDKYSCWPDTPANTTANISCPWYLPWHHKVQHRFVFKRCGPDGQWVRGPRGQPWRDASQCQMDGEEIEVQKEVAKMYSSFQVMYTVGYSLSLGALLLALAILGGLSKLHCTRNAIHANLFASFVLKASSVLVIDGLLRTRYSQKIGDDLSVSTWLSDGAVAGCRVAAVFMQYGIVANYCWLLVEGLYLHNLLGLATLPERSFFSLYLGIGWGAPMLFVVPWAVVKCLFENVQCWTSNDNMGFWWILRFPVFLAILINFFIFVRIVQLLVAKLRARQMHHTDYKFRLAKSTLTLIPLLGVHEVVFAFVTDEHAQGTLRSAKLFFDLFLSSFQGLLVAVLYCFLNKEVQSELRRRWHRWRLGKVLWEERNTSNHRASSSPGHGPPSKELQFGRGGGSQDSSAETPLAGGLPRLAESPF

CCCC(c1ccc(C(=O)NCCC(=O)O)cc1)C(c1ccc(Cl)cc1)c1n[nH]c2c(F)cc(-c3cccc(F)c3)cc12 (racemic) [Example 24] gave an IC50 of 1.7 nM.
In the case of CCCC(c1ccc(C(=O)NCCC(=O)O)cc1)C(c1ccc(Cl)cc1)c1n[nH]c2c(C)cc(Cl)cc12 (single isomer, unassigned) [Example 1], the “relative potency as glucagon receptor antagonist among the stereoisomers prepared” value (from here on “relative potency”) is reported as “most potent glucagon antagonist of the four stereoisomeric compounds” and the IC50 is reported as 0.6 nM.
Work on CCCC(c1ccc(C(=O)NCCC(=O)O)cc1)C(c1ccc(Cl)cc1)c1nn(C)c2c(Cl)cc(C(F)(F)F)cc12 (single isomer, unassigned) [Example 2, N-(4-{1-[[7-Chloro-1-Methyl-5-(Trifluoromethyl)-1H-Indazol-3-Yl](4-Chlorophenyl)Methyl]Butyl}Benzoyl)-β-Alanine] yielded an IC50 of 0.7 nM.
For CCCC(c1ccc(C(=O)NCCC(=O)O)cc1)C(c1ccc(Cl)cc1)c1c2cc(C(F)(F)F)cc(Cl)c2nn1-c1ccccc1 (single isomer, unassigned) [Example 3, N-[4-(1-{(4-Chlorophenyl)[7-Chloro-2-Phenyl-5-(Trifluoromethyl)-2H-Indazol-3-Yl]Methyl}Butyl)Benzoyl]-β-Alanine], the IC50 was 37 nM.
CCCC(c1ccc(C(=O)NCCC(=O)O)cc1)C(c1ccc(Cl)cc1)c1c2cc(C(F)(F)F)cc(Cl)c2nn1C (single isomer, unassigned) [Example 4, N-[4-(1-{(4-Chlorophenyl)[7-Chloro-2-Methyl-5-(Trifluoromethyl)-2H-Indazol-3-Yl]Methyl}Butyl)Benzoyl]-β-Alanine] was tested, and the “relative potency” value was “most potent glucagon receptor antagonist of the four stereoisomeric compounds” and the IC50 was 2.6 nM.
In the case of CCCC(c1ccc(C(=O)NCCC(=O)O)cc1)C(c1ccc(Cl)cc1)c1n[nH]c2ccc(C(F)(F)F)cc12 (single isomer, unassigned) [Example 5, N-[4-(1-{(4-CHLOROPHENYL)[5-(TRIFLUOROMETHYL)-1H- INDAZOL-3-YL]METHYL}BUTYL)BENZOYL]-β-ALANINE], the IC50 is reported as 0.8 nM.
With CCCC(c1ccc(C(=O)NCCC(=O)O)cc1)C(c1ccc(Cl)cc1)c1n[nH]c2c(Cl)cc(C(F)(F)F)cc12 (single isomer, unassigned) [Example 6, N-[4-(1-{(4-CHLOROPHENYL)[7-CHLORO-5-(TRIFLUOROMETHYL)-1H-INDAZOL- 3-YL]METHYL}BUTYL)BENZOYL]-β-ALANINE] the IC50 was 0.2 nM.
CCCC(c1ccc(C(=O)NCCC(=O)O)cc1)C(c1ccc(Cl)cc1)c1n[nH]c2c(Cl)cc(Cl)cc12 (single isomer, unassigned) [Example 8, N-[4-(1-{(4-CHLOROPHENYL)[5,7-DICHLORO-1H-INDAZOL-3- YL]METHYL}BUTYL)BENZOYL]-β-ALANINE] gave an IC50 of 0.4 nM.
Work on CCCC(c1ccc(C(=O)NCCC(=O)O)cc1)C(c1ccc(Cl)cc1)c1nn(C)c2ccc(C(F)(F)F)cc12 (single isomer, unassigned) [Example 9, N-[4-(1-{(4-CHLOROPHENYL)[1-METHYL-5-(TRIFLUOROMETHYL)-1H- INDAZOL-3-YL]METHYL}BUTYL)BENZOYL]-β-ALANINE] yielded an IC50 of 1 nM.
CCCC(c1ccc(C(=O)NCCC(=O)O)cc1)C(c1ccc(Cl)cc1)c1nn(C)c2c(F)cc(F)cc12 (single isomer, unassigned) [Example 10, N-[4-(1-{(4-CHLOROPHENYL)[1-METHYL-5,7-DIFLUORO-1H- INDAZOL-3-YL]METHYL}BUTYL)BENZOYL]-β-ALANINE] gave an IC50 of 4 nM.
CCCC(c1ccc(C(=O)NCCC(=O)O)cc1)C(c1ccc(Cl)cc1)c1nn(C)c2c(C)cc(Cl)cc12 (single isomer, unassigned) [Example 11, N-[4-(1-{(4-CHLOROPHENYL)[1,7-DIMETHYL-5-CHLORO-1H- INDAZOL-3-YL]METHYL}BUTYL)BENZOYL]-β-ALANINE] was tested, and the IC50 was 0.7 nM.
In the case of CCCC(c1ccc(C(=O)NCCC(=O)O)cc1)C(c1ccc(Cl)cc1)c1nn(C)c2c(Cl)cc(Cl)cc12 (single isomer, unassigned) [Example 12, N-[4-(1-{(4-CHLOROPHENYL)[1-METHYL-5,7-DICHLORO-1H-INDAZOL-3- YL]METHYL}BUTYL)BENZOYL]-β-ALANINE], the IC50 is reported as 0.9 nM.
With CCCC(c1ccc(C(=O)NCCC(=O)O)cc1)C(c1ccc(Cl)cc1)c1c2cc(C(F)(F)F)ccc2nn1C (single isomer, unassigned) [Example 13, N-[4-(1-{(4-CHLOROPHENYL)[2-METHYL-5- (TRIFLUOROMETHYL)-2H-INDAZOL-3- YL]METHYL}BUTYL)BENZOYL]-β-ALANINE] the IC50 was 3.3 nM.
For CCCC(c1ccc(C(=O)NCCC(=O)O)cc1)C(c1ccc(Cl)cc1)c1c2cc(C(F)(F)F)cc(Cl)c2nn1CC(F)(F)F (single isomer, unassigned) [Example 17, N-[4-(1-{(4-CHLOROPHENYL)[7-CHLORO-2-(2,2,2- TRIFLUOROETHYL)-5-(TRIFLUOROMETHYL)-2H-INDAZOL-3- YL]METHYL}BUTYL)BENZOYL]-β-ALANINE], the IC50 was 3.9 nM.
Work on CCCC(c1ccc(C(=O)NCCC(=O)O)cc1)C(c1ccc(Cl)cc1)c1c2cc(Cl)cc(Cl)c2nn1C (single isomer, unassigned) [Example 19, N-[4-(1-{(4-CHLOROPHENYL)[2-METHYL-5,7-DICHLORO-2H-INDAZOL-3- YL]METHYL}BUTYL)BENZOYL]-β-ALANINE] yielded an IC50 of 2 nM.
In the case of CCCC(c1ccc(C(=O)NCCC(=O)O)cc1)C(c1ccc(Cl)cc1)c1n[nH]c2c(F)cc(-c3ccc(C)cc3)cc12 (single isomer, unassigned) [Example 21, N-[4-(1-{(4-Chlorophenyl)[7-Fluoro-5-(4-Methylphenyl)-1H-Indazol-3-Yl]Methyl}Butyl)Benzoyl]-β-Alanine], the “relative potency” value is reported as “the more potent glucagon receptor antagonist” and the IC50 is reported as 2.6 nM.
In the case of CCCC(c1ccc(C(=O)NCCC(=O)O)cc1)C(c1ccc(Cl)cc1)c1n[nH]c2c(F)cc(C#N)cc12 (single isomer, unassigned) [Example 36, N-(4-{1-[(4-Chlorophenyl)(5-Cyano-7-Fluoro-1H-Indazol-3-Yl)Methyl]Butyl}Benzoyl)-β-Alanine], the “relative potency” value is reported as “the more potent glucagon receptor antagonist” and the IC50 is reported as 4.3 nM.
CCC[C@H](c1ccc(C(=O)NCCC(=O)O)cc1)[C@H](c1ccc(Cl)cc1)c1n[nH]c2c(F)cc(C)cc12 (single isomer, unassigned) [Example 37] gave an IC50 of 0.8 nM.

— US8318667B2, “Glucagon receptor antagonist compounds, compositions containing such compounds and methods of use” (Merck Sharp & Dohme Corp., priority 2009, dated 2012)
